# According to US8119589B2, “Modulation of CD4+ T cell responses by a tick saliva protein, Salp15 and polypeptides derived therefrom” (University of North Carolina at Charlotte, priority 2004, dated 2012):
# Columns and labels:
# R-EAE in SJL/J mice = test: Relapsing-EAE model in PLP139-151 immunized SJL mice; assay type: in vivo, mouse
# Method: SJL/J mice in groups of 18 are injected i.p. with 200 μg of PLP peptide 139-151 (HSLGKWLGHPDKF; SEQ ID NO: 15) (Research Genetics, Huntsville, Ala., U.S.A.). Please note that the original Cysteine has been substituted by serine for stability purposes. […] One group of mice receives daily injections of 50 μg of recombinant Salp15 produced in a Drosophila expression system, starting day 10 after immunization. This regime permits an efficient in vivo activation of PLP139-151-specific CD4^+ T cell activation. Since Salp15 has no effect on effector CD4^+ T cells (Anguita et al., 2002.), its function is expected to be circumscribed to the activation of neoreactive CD4^+ T cells. […]
# At days 12 (including the 3 control mice treated with Salp15 over the course of the immunization), 14, 17, 20, 30 and 60 post-infection, 3 mice from each group are sacrificed and analyzed as follows: splenic CD4^+ T cells are purified by negative selection using biotinylated antibodies against CD8a, Ly6G, Mac-I, B220, class II (I-A^k and I-E^k) and panNK molecules (BD Biosciences Pharmingen, San Jose, Calif., U.S.A.), followed by incubation with Avidin bound to magnetic microbeads and passage through a magnetic column (Miltenyi Biotec, Auburn, Calif., U.S.A.). […]
# Peripheral responses to relapsing epitopes are assessed by the analysis of delayed type hypersensitivity (DTH). […]
# [1] = test system: splenic T cells from CD4-deficient mice and control T cells; test: IL-2 production by anti-CD3/CD28 stimulated T cells from CD4-deficient and B6 mice; assay type: cell-based, mouse; conditions: 50 μg/mL Salp15, 72 hrs
# Method: T-cells from CD4-deficient and B6 mice (The Jackson Laboratory, Bar Harbor, Me., U.S.A.) were purified by negative selection and activated for 72 hrs using 5 μg/ml of plate bound anti-CD3 and 1 μg/ml of anti-CD28 in the presence or absence of 50 μg/mL of Salp15. DO11.10 transgenic mouse (The Jackson Laboratory) CD4^+ T cells were purified by negative selection as before and incubated in the presence of 106/mL of syngeneic mitomycin C-treated (50 μg/ml for 40 min at 37° C.) antigen presenting cells (APCs) with 10 μg/mL of ovalbumin in the presence of 0.5, 5.0 and 50 μg/mL of Salp15 for 72 hrs. The supernatants were then collected and IL-2 measured by capture ELISA following the manufacturer's instruction (BD Biosciences Pharmingen).
# Jurkat cells = test: Lipid raft redistribution (CTB594 staining) in activated Jurkat cells; assay type: cell-based, human; conditions: Salp15 treatment prior to anti-CD3/CD28 stimulation
# Method: Naïve CD4+ T cells from C3H/HeN, Balb/c, and B10.BR mice were purified as previously described (Anguita et al., 2002). CD4+ T cells were preincubated in Click's modified Bruff's Medium (Sigma Chemical Co., St. Louis, Mo., U.S.A.) for 10 minutes at 37° C. with and without Salp15 (50 μg/mL) and stimulated for 20 min or the indicated times at 37° C. with 10 μg/mL of anti-CD3ε, 1 μg/mL of anti-CD28, and 10 μg/mL of anti-armenian and syrian hamster IgG (BD Biosciences Pharmingen, San Jose, Calif., U.S.A.). Jurkat (E6-1) cells were stimulated using 5 μg/mL of OKT3 mAb (eBioscience, San Diego, Calif., U.S.A.) and 1 μg/mL of anti-human CD28 cross linked with 5 μg/mL anti-mouse IgG for the indicated times.
# For the visualization of lipid rafts, phospho-tyrosine, and cytoskeleton reorganization, CD4^+, CD8^+ or Jurkat cells were cytospun for 10 minutes at 1000 RPM onto positively charged microslides (Fisher Scientific, Hampton, N.H., U.S.A.). The cells were fixed with 3.7% paraformaldehyde (Sigma Chemical Co.) for 15 minutes and stained with CTB594 (Molecular Probes, Eugene, Oreg., U.S.A.), AlexaFluor488 labeled phalloidin (Molecular Probes) or (1:50) biotin-conjugated anti-p-Tyr (PY99) followed by Streptavidin-AlexaFluor594 (1:100, Molecular Probes). […]
substance,measurement,setting,value
"Salp15: secreted salivary protein from Ixodes scapularis, SEQ ID NO: 2; recombinant His-tagged, produced in Drosophila S2 cells",Activation of CD4+ T cells in response to new epitopes (epitope spreading),R-EAE in SJL/J mice; daily 50 μg Salp15 from day 10 after immunization,lowered activation
same,Degree of demyelination,R-EAE in SJL/J mice; histology of brains and spinal cords,lower degree of demyelination
same,"Inhibition (immunosuppressive activity, IL-2)",[1]; T cells from CD4-negative mice,33%
same,"Inhibition (immunosuppressive activity, IL-2)",[1]; control T cells (B6 mice),85%
same,Lipid raft clustering,Jurkat cells,reduced
